The source of these data is patent publication US20160243151A1, “CO-RELEASING COMPOUNDS & FORMULATIONS THEREOF USEFUL FOR INDUCING MITOCHONDRIAL BIOGENESIS AND TISSUE REPAIR” (UNIVERSITÄT ZÜRICH, priority 2013, published 2016).

Data set [1] relates to Hepa 1-6 cells. Kind of data set: NOS2 and IL10 mRNA in cytomix-exposed Hepa 1-6 cells. It counts as cell-based, mouse. Particulars: cytomix 24 h. As to the method: Mouse hepatoma cells (ATCC, CRL-1830) were grown to near confluence according to the manufacturer's instructions and then exposed to cytomix (a) for 24 hours. At the time of cytomix exposure, cells were treated with B12-CORM2 (25 μM) (b) or the other compounds shown in panel (A). […] (B) shown the relative mRNA levels for the pro-inflammatory enzyme NOS2 (black) and the anti-inflammatory cytokine interleukin 10 (IL10) (white), as measured by real time RT-PCR. Control and cytomix-treated cells were harvested, disrupted, and total RNA extracted. Both gene products increased in response to cytomix, but B12-CORM2 reduced NOS2 and enhanced IL10 expression. […] Moreover, administration of the low molecular weight anti-oxidant N-acetyl cysteine (NAC, 5 mM) (d) abrogates the anti-inflammatory effect of the Re-based CORM according to the invention in accordance with the proposed redox mechanism of action. Finally, the NF-kB inhibitor BAY11 (BAY 11-7082, Santa Cruz) (e) fully blocks the cytomix effect on NOS2, but only partially reduces the effect on IL-10, indicating the NF-kB-independent mechanism of action of B12-CORM2 (*, P<0.05 compared with control cells; #, P<0.05 compared with cytomix treatment). […]
Inflammation assessment. The mRNA levels for the pro-inflammatory enzyme NOS2 and the anti-inflammatory cytokine interleukin 10 (IL10) were measured by real time RT-PCR.

The test system of data set [2] is H9c2 cells. In words: Western blot densitometry in H9c2 cells exposed to DOX. It counts as cell-based, rat. Particulars: +DOX (0.5 μg/ml), 3 days of differentiation. As to the method: (§1) Cell culture and treatments. H9c2 cells (embryonic rat cardiomyocytes; ATCC) were maintained in DMEM (Invitrogen) supplemented with 10% fetal bovine serum (Invitrogen) and 2 mmol/l 1-glutamine. Cells were plated on 35- or 100-mm dishes in DMEM with 2% FCS for differentiation. Doxorubicin (DOX) was added to complete medium and incubated at 37° C. for different intervals at a concentration (0.5 μg/ml) similar to the plasma concentrations encountered in clinical use. Some cells were exposed to B12-CORM2 (25 μM) with or without DOX. Cells collected after 3 days of differentiation.
Differentiation assessment. Western blot analysis and densitometry were performed relative to tubulin for alpha-actinin as a specific marker of cardiomyocyte differentiation and intactness of the contractile apparatus.
Mitochondrial integrity and density assessment. Western blot analysis and densitometry were performed relative to tubulin for citrate synthase.
DOX and/or B12-CORM2 were added complete medium on day 1.

The subject of data set [3] is H9c2 cells. In words: cell survival by Trypan blue exclusion in H9c2 cells exposed to DOX. As to conditions: +DOX (0.5 μg/ml). It counts as cell-based, rat. The protocol: as §1
Cell survival. Cell survival was measured by Trypan blue exclusion.
DOX and/or B12-CORM2 were added complete medium on day 1. […] Mitochondrial protection was accompanied by improved cell survival of B12-CORM2-treated cells exposed to DOX, as assessed by Trypan blue exclusion (Table 5).

The subject of another data set is E14 ESC embryoid bodies. Kind of data set: beating embryoid body out-growths. It counts as cell-based, mouse. Particulars: MitoQ given in the initial five days of differentiation. As to the method: Culture and differentiation of murine E14 cells, murine D3 cells and human MEL1 cells. These cell lines were independently grown at 37° C. in 5% CO2 on gelatin-coated substrates prepared by coating plastic tissue culture flasks with a 0.1% gelatin solution. Cells were maintained in a standard medium (Iscove's Modified Dulbecco's Medium, Invitrogen) plus 15% newborn calf serum, non-essential amino acids, and nucleosides stock. Leukemia inhibitory factor (LIF) (Chemicon) at a final concentration of 1,000 U/ml and 100 μM 2-mercaptoethanol were added to standard medium to prevent differentiation. For the induction of differentiation the hanging drop method such as described in Keller, 1995, Curr. Opin. Cell. Biol., 7(6), 862-9 was used. E14 cells were cultivated without LIF in hanging drops to form embryoid bodies (EBs) ([…] cells per drop) for 2 days, then kept in suspension for 2 days, and finally plated on gelatin-coated, 96 well, single-culture dishes or single well slides. […] Adhered EBs monitored daily under an inverted microscope for spontaneously beating foci from day 3 onward until day 13. In total, 3×96 EBs from E14 cells were monitored. To confirm that the increase in contracting EBs is HO-1/CO-mediated, E14 cells were transduced with Sh-HO1 vector or empty vector, differentiated as above and monitored by fluorescence microscopy. […]

In data set [4] the test system is Hepa 1-6 cells. Kind of data set: MTT reduction assay in Hepa 1-6 cells. Particulars: control and cytomix-exposed cells, 24 h. It counts as cell-based, mouse. As to the method: Mouse hepatoma cells (ATCC, CRL-1830) were grown to near confluence according to the manufacturer's instructions and then exposed to cytomix (a) for 24 hours. At the time of cytomix exposure, cells were treated with B12-CORM2 (25 μM) (b) or the other compounds shown in panel (A). […] (B) shown the relative mRNA levels for the pro-inflammatory enzyme NOS2 (black) and the anti-inflammatory cytokine interleukin 10 (IL10) (white), as measured by real time RT-PCR. Control and cytomix-treated cells were harvested, disrupted, and total RNA extracted. Both gene products increased in response to cytomix, but B12-CORM2 reduced NOS2 and enhanced IL10 expression. […]
Metabolic capacity assessment: The metabolic state of Hepa 1-6 liver cells was measured using the MTT (3-(4,5-dimethylthiazol-2-yl)-2,5-diphenyltetrazolium bromide, a yellow tetrazole) reduction assay. MTT is reduced to the purple formazan by living cells, which is detected colorimetrically (at 570 nm). […]
Cytomix damages and kills liver cells such as Hepa 1-6 cells. The metabolic state of Hepa 1-6 liver cells were measured using the MTT reduction assay. MTT (3-(4,5-dimethylthiazol-2-yl)-2,5-diphenyltetrazolium bromide, a yellow tetrazole) is reduced to the purple formazan by living cells, which is detected colorimetrically. […]
A general note: Tetrazolium dyes change colour on reduction, which living cells bring about.

With `Cc1ccc(S(=O)(=O)/C=C/C#N)cc1` [BAY11], the “cytomix effect on NOS2 induction” value in the data set with Hepa 1-6 cells [1] was “fully blocks the cytomix effect on NOS2 induction”.
Consider `COc1cccc2c1C(=O)c1c(O)c3c(c(O)c1C2=O)C[C@@](O)(C(=O)CO)C[C@@H]3O[C@H]1C[C@H](N)[C@H](O)[C@H](C)O1` [DOX, Doxorubicin], for which, in the data set on H9c2 cells [2], the “Alpha actinin expression levels (% as compared to untreated cells)” value was 57.1% (11) and the “Citrate synthase expression levels (% as compared to untreated cells)” value is given as 60% (12.3). Moreover, the “Surviving cells (% as compared to untreated cells)” value in the data set on H9c2 cells [3] is reported as 61% (9.9).
As to `COC1=C(OC)C(=O)C(CCCCCCCCCC[P+](c2ccccc2)(c2ccccc2)c2ccccc2)=C(C)C1=O` [MitoQ], in the data set with E14 ESC embryoid bodies, the “effect on B12-CORM2-induced percentage of beating EB” value is listed as “the B12-CORM2 effect was blocked”.
Consider `CC(=O)N[C@@H](CS)C(=O)O` [NAC, N-acetyl cysteine], for which the “inflammatory response to cytomix (NOS2, IL10 mRNA)” value in the data set with Hepa 1-6 cells [1] was “not protective”.
Turning to hemin, the “MTT reduction (metabolic capacity)” value in the data set with Hepa 1-6 cells [4] is reported as “did not provide any protection against the cytomix-induced damage”.
